This passage reports Emax and EC50 results from US20230265151A1, “GIP/GLP1 CO-AGONIST COMPOUNDS” (priority 2020, published 2023).

Molecules are shown by their SMILES. Where two headings read alike, the source gives them in different places.

Common to all, as to assay type: cell-based
The target in experiment [1] is T1, hGIPR (Homo sapiens, UniProt P48546).
T1 construct: expressed in transfected cells
T1 sequence (P48546 22-466): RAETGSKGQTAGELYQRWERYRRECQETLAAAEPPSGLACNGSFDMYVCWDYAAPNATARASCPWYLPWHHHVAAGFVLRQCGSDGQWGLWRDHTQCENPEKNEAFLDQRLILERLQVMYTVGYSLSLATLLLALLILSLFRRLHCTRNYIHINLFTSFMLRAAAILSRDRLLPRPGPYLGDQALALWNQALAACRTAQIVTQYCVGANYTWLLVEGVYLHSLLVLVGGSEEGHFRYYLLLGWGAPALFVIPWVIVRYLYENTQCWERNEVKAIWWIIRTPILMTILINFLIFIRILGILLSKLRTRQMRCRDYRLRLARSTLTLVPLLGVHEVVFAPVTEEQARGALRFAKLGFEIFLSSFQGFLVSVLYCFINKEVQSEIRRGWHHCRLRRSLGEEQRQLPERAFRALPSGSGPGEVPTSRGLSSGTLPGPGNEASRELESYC
Put plainly: Functional cAMP formation (HTRF) in HEK-293 clonal cells expressing hGIPR, 0.1% bovine casein, without or with 1.0% human serum albumin. The settings on record: for EC50: geometric mean. The essentials:
(§1)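 Readings of the HTRF 665/620 nm ratio, which falls as cAMP rises, were converted to nM cAMP using a standard curve after 30 min peptide exposure at 37° C.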
(In general: Changes in cAMP serve as a functional read-out for many G protein-coupled receptors.)

Experiment [2] addresses hGLP-1R (Homo sapiens, UniProt P43220). Put plainly: Functional cAMP formation (HTRF) in HEK-293 clonal cells expressing hGLP-1R, 0.1% bovine casein, without or with 1.0% human serum albumin. Also noted: expressed in transfected cells. The settings on record: for EC50: cAMP, 0.1% bovine casein (no human serum albumin), geometric mean; for Emax: HEK293, 0.1% bovine casein and 1.0% human serum albumin, percent of maximal response to GLP-1(7-36)NH2, read-out: hGLP-1R Emax, % ± SEM. The essentials: as §1

For experiment [3], the target named is T2, hGCGR (Homo sapiens, UniProt P47871).
T2 construct: expressed in transfected cells
T2 sequence (P47871 26-477): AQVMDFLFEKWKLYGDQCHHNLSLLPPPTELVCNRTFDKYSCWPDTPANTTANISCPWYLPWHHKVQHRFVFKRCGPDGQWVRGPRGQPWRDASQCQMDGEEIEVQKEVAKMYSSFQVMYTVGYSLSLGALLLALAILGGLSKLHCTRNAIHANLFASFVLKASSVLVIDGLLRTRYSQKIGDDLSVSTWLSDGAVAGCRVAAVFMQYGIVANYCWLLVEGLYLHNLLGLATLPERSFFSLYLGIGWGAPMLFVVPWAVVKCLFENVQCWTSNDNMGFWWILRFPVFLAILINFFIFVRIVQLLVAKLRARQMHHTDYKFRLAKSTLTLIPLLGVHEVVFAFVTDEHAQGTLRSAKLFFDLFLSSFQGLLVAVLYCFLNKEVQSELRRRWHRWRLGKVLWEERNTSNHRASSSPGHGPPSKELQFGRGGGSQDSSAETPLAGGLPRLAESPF
Put plainly: Functional cAMP formation (HTRF) in HEK-293 clonal cells expressing hGCGR, 0.1% bovine casein, without or with 1.0% human serum albumin. The essentials:
as §1

Setting [4] is: HEK293, 0.1% bovine casein and 1.0% human serum albumin, 37° C., percent of maximal response to GIP(1-42)NH2, read-out: hGIPR Emax, % ± SEM.
[5] abbreviates: 0.1% bovine casein and 1.0% human serum albumin, 37° C., geometric mean, read-out: hGCGR EC50, nM (SEM, n).
Where [6] appears, read: cAMP, 37° C., 0.1% bovine casein (no human serum albumin), geometric mean, read-out: hGCGR EC50, nM (SEM, n).

Chain of hGLP-1R (P43220 24-463): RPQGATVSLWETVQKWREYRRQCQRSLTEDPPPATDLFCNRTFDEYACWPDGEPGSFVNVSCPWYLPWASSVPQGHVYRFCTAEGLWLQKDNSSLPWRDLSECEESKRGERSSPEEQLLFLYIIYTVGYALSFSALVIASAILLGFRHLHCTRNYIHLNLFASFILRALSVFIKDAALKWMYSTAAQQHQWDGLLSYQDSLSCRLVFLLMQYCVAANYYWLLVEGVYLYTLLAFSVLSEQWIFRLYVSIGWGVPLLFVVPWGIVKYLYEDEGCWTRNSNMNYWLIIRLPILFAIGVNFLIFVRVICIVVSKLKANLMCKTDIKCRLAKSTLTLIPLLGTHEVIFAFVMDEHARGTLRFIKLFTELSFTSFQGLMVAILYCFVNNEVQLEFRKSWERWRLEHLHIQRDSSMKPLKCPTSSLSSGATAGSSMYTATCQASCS

`CC[C@H](C)[C@H](NC(=O)[C@H](CCCN)NC(=O)[C@H](CC(=O)O)NC(=O)[C@H](CC(C)C)NC(=O)[C@](C)(CC(C)C)NC(=O)[C@@H](NC(=O)C(C)(C)NC(=O)[C@@H](NC(=O)[C@H](CC(=O)O)NC(=O)[C@H](CO)NC(=O)[C@@H](NC(=O)[C@](C)(Cc1ccccc1F)NC(=O)[C@@H](NC(=O)CNC(=O)[C@H](CCC(=O)O)NC(=O)C(C)(C)NC(=O)[C@@H](N)Cc1ccc(O)cc1)[C@@H](C)O)[C@@H](C)O)C(C)C)[C@@H](C)CC)C(=O)N[C@@H](C)C(=O)N[C@@H](CCC(N)=O)C(=O)NC(C)(C)C(=O)N[C@@H](CCC(=O)O)C(=O)N[C@@H](Cc1ccccc1)C(=O)N[C@H](C(=O)N[C@@H](CCCCNC(=O)COCCOCCNC(=O)COCCOCCNC(=O)COCCOCCNC(=O)CC[C@H](NC(=O)CCCCCCCCCOc1ccc(C(=O)O)cc1)C(=O)O)C(=O)N[C@@](C)(Cc1ccc(O)cc1)C(=O)N[C@@H](CC(C)C)C(=O)N[C@H](C(=O)N[C@@H](CCCCNC(=O)COCCOCCNC(=O)COCCOCCNC(=O)COCCOCCNC(=O)CC[C@H](NC(=O)CCCCCCCCCOc1ccc(C(=O)O)cc1)C(=O)O)C(=O)NCC(=O)NCC(=O)N1CCC[C@H]1C(=O)N[C@@H](CO)C(=O)N[C@@H](CO)C(=O)NCC(=O)N[C@@H](C)C(=O)N1CCC[C@H]1C(=O)N1CCC[C@H]1C(=O)N1CCC[C@H]1C(=O)N[C@@H](CO)C(N)=O)[C@@H](C)CC)[C@@H](C)CC` [Example 347]: the Emax (in general, the size of the effect at its maximum, as opposed to the concentration needed) in experiment [1] (HEK293, read-out: hGIPR Emax, % ± SEM, cAMP, 37° C., 0.1% bovine casein and 1.0% human serum albumin, percent of maximal response to GIP(1-42)NH2) is 84.6%; in experiment [1] (HEK293, read-out: hGIPR Emax, % ± SEM, cAMP, 37° C., 0.1% bovine casein, percent of maximal response to GIP(1-42)NH2, arithmetic mean) it was 98%. Further, the EC50 (as a rule, the concentration giving half of the maximal effect) was 0.0259 nM in experiment [1] (hGIPR EC50, nM (SEM, n), cAMP, 37° C., 0.1% bovine casein (no human serum albumin)); 0.356 nM in experiment [2] (hGLP-1R EC50, nM (SEM, n), 37° C.); greater than 9950 nM in experiment [3] (hGCGR EC50, nM (SEM, n), cAMP, 37° C., 0.1% bovine casein (no human serum albumin), geometric mean); greater than 9950 nM in experiment [3] (hGCGR EC50, nM (SEM, n), cAMP, 37° C., 0.1% bovine casein and 1.0% human serum albumin, geometric mean (SEM, n)).

For `CCCCCCCCCCCC(=O)N[C@@H](CCC(=O)NCCOCCOCC(=O)NCCOCCOCC(=O)NCCCC[C@H](NC(=O)[C@H](CCCN)NC(=O)[C@H](CC(=O)O)NC(=O)[C@H](CC(C)C)NC(=O)[C@](C)(CC(C)C)NC(=O)[C@@H](NC(=O)[C@H](CO)NC(=O)[C@H](Cc1ccncc1)NC(=O)[C@H](CC(=O)O)NC(=O)[C@H](CO)NC(=O)[C@@H](NC(=O)[C@](C)(Cc1ccccc1F)NC(=O)[C@@H](NC(=O)CNC(=O)[C@H](CCC(=O)O)NC(=O)C(C)(C)NC(=O)[C@@H](N)Cc1ccc(O)cc1)[C@@H](C)O)[C@@H](C)O)[C@@H](C)CC)C(=O)N[C@@H](C)C(=O)N[C@@H](CCC(N)=O)C(=O)NC(C)(C)C(=O)N[C@@H](CCC(=O)O)C(=O)N[C@@H](Cc1ccccc1)C(=O)N[C@H](C(=O)N[C@H](CCC(=O)O)C(=O)N[C@@](C)(Cc1ccc(O)cc1)C(=O)N[C@@H](CC(C)C)C(=O)N[C@H](C(=O)N[C@@H](CCC(=O)O)C(=O)NCC(=O)N[C@@H](CCCCNC(=O)COCCOCCNC(=O)COCCOCCNC(=O)CC[C@H](NC(=O)CCCCCCCCCCC)C(=O)O)C(=O)N1CCC[C@H]1C(=O)N[C@@H](CO)C(=O)N[C@@H](CO)C(=O)NCC(=O)N[C@@H](C)C(=O)N1CCC[C@H]1C(=O)N1CCC[C@H]1C(=O)N1CCC[C@H]1C(=O)N[C@@H](CO)C(N)=O)[C@@H](C)CC)[C@@H](C)CC)C(=O)O` [Example 140], the maximum response (Emax) in experiment [1] (HEK293, percent of maximal response to GIP(1-42)NH2, 37° C., 0.1% bovine casein, arithmetic mean, read-out: hGIPR Emax, % ± SEM) was determined as 98.5 ± 1.71%. In addition, the concentration for a half-maximal effect (EC50) in experiment [1] (cAMP, incubated at 37° C., 0.1% bovine casein (no human serum albumin), read-out: hGIPR EC50, nM (SEM, n)) was 0.0121 nM; in experiment [2] (incubated at 37° C., read-out: hGLP-1R EC50, nM (SEM, n)), 0.131 nM; in experiment [3] (cAMP, incubated at 37° C., 0.1% bovine casein (no human serum albumin), geometric mean, read-out: hGCGR EC50, nM (SEM, n)) it was greater than 9950 nM.

For the compound `CC[C@H](C)[C@H](NC(=O)[C@H](CCCN)NC(=O)[C@H](CC(=O)O)NC(=O)[C@H](CC(C)C)NC(=O)[C@](C)(CC(C)C)NC(=O)[C@@H](NC(=O)[C@H](CO)NC(=O)[C@H](Cc1ccc2ccccc2c1)NC(=O)[C@H](CC(=O)O)NC(=O)[C@H](CO)NC(=O)[C@@H](NC(=O)[C@](C)(Cc1ccccc1F)NC(=O)[C@@H](NC(=O)CNC(=O)[C@H](CCC(=O)O)NC(=O)C(C)(C)NC(=O)[C@@H](N)Cc1ccc(O)cc1)[C@@H](C)O)[C@@H](C)O)[C@@H](C)CC)C(=O)N[C@@H](C)C(=O)N[C@@H](CCC(N)=O)C(=O)NC(C)(C)C(=O)N[C@@H](CCCCNC(=O)COCCOCCNC(=O)COCCOCCNC(=O)CC[C@H](NC(=O)CCCCCCCCCCCCC(=O)O)C(=O)O)C(=O)N[C@@H](Cc1ccccc1)C(=O)N[C@H](C(=O)N[C@H](CCC(=O)O)C(=O)N[C@@](C)(Cc1ccc(O)cc1)C(=O)N[C@@H](CC(C)C)C(=O)N[C@H](C(=O)N[C@@H](CCC(=O)O)C(=O)NCC(=O)NCC(=O)N1CCC[C@H]1C(=O)N[C@@H](CO)C(=O)N[C@@H](CO)C(=O)NCC(=O)N[C@@H](C)C(=O)N1CCC[C@H]1C(=O)N1CCC[C@H]1C(=O)N1CCC[C@H]1C(=O)N[C@@H](CO)C(=O)N[C@@H](CCCCNC(=O)COCCOCCNC(=O)COCCOCCNC(=O)CC[C@H](NC(=O)CCCCCCCCCCCCC(=O)O)C(=O)O)C(N)=O)[C@@H](C)CC)[C@@H](C)CC` [Example 254], the Emax was found to be 68.5% in experiment [1] (setting [4]); 98.2% in experiment [1] (HEK293, cAMP, 37° C., 0.1% bovine casein, percent of maximal response to GIP(1-42)NH2, arithmetic mean, read-out: hGIPR Emax, % ± SEM); 122% in experiment [2] (37° C.). Also, the EC50 in experiment [3] (setting [5]) and in experiment [3] (setting [6]) was greater than 9950 nM in each case.

On to `CCCCCCCCCCCC(=O)N[C@@H](CCC(=O)NCCOCCOCC(=O)NCCOCCOCC(=O)NCCCC[C@H](NC(=O)[C@H](CCCN)NC(=O)[C@H](CC(=O)O)NC(=O)[C@H](CC(C)C)NC(=O)[C@](C)(CC(C)C)NC(=O)[C@@H](NC(=O)[C@H](CO)NC(=O)[C@H](Cc1ccc(OC)cc1)NC(=O)[C@H](CC(=O)O)NC(=O)[C@H](CO)NC(=O)[C@@H](NC(=O)[C@](C)(Cc1ccccc1F)NC(=O)[C@@H](NC(=O)CNC(=O)[C@H](CCC(=O)O)NC(=O)C(C)(C)NC(=O)[C@@H](N)Cc1ccc(O)cc1)[C@@H](C)O)[C@@H](C)O)[C@@H](C)CC)C(=O)N[C@@H](C)C(=O)N[C@@H](CCC(N)=O)C(=O)NC(C)(C)C(=O)N[C@@H](CCC(=O)O)C(=O)N[C@@H](Cc1ccccc1)C(=O)N[C@H](C(=O)N[C@H](CCC(=O)O)C(=O)N[C@@](C)(Cc1ccc(O)cc1)C(=O)N[C@@H](CC(C)C)C(=O)N[C@H](C(=O)N[C@@H](CCCCNC(=O)COCCOCCNC(=O)COCCOCCNC(=O)CC[C@H](NC(=O)CCCCCCCCCCC)C(=O)O)C(=O)NCC(=O)NCC(=O)N1CCC[C@H]1C(=O)N[C@@H](CO)C(=O)N[C@@H](CO)C(=O)NCC(=O)N[C@@H](C)C(=O)N1CCC[C@H]1C(=O)N1CCC[C@H]1C(=O)N1CCC[C@H]1C(=O)N[C@@H](CO)C(N)=O)[C@@H](C)CC)[C@@H](C)CC)C(=O)O` [Example 290], for which the concentration for a half-maximal effect (EC50) in experiment [1] (0.1% bovine casein and 1.0% human serum albumin, 37° C., read-out: hGIPR EC50, nM (SEM, n)) was 0.878 nM; in experiment [3] (setting [5]), greater than 9950 nM; in experiment [3] (setting [6]), greater than 9950 nM. Also, the maximum response (Emax) in experiment [1] (setting [4]) is 93.4%; in experiment [2] (37° C.), 109%.
